One assay has as its system protein phosphatase 2A. Particulars: cited from earlier work.
The subject of another assay is PIM-1. The assay can be described thus: PIM-1 expression in cultured cardiomyocytes (immunoblot, confocal microscopy). Format: cell-based, rat. Particulars: for PIM-1 protein level (immunoblot): 2 hour exposure; for induction of PIM-1 expression / PIM-1 immunoreactivity by confocal microscopy: treatment for 2 hours; for PIM-1 immunoreactivity by confocal microscopy: compared to control cells. The method, then: Neonatal Rat Cardiomyocyte Cultures infections and treatments. Neonatal rat cardiomyocyte cultures were prepared as described previously^12. Cells to be subjected to treatments were placed in media with 2% serum overnight and then treated with the appropriate agent and harvested or fixed after the pre-described timepoint. Cardiomyocytes were infected with adenovirus for two hours, washed in PBS and then re-fed M199 with 2% FBS and 50 μg/ml pen/strep, and 100 μM glutamine.
Immunoblotting. Infected cardiomyocytes were harvested 24 hours after infection in SDS denaturing sample buffer, sonicated and boiled for 10 minutes, and quantitated using the Bradford assay. Mouse whole heart lysates were generated from flash frozen hearts pulverized in a mortar and pestle then resuspended in SDS denaturing sample buffer, sonicated, boiled for 10 minutes and quantitated using Bradford assay. […] Blots were blocked in 3% BSA for 1 hour, and probed with primary antibodies (PIM-1 (Cell Signaling Technology), c-jun (Cell Signaling Technology), HISTONE3™ (Cell Signaling Technology), GFP (Molecular Probes), bcl-2 (Santa Cruz), bcl-XL (Cell Signaling Technology), PHOSPHO-BADS112™ (Biosource) AKT (Cell Signaling Technology), GAPDH (Research Diagnostics Inc.), PHOSPHO-AKTS473™ (Cell Signaling Technology), total PARP (Biosource), cleaved PARP (Biosource), and cleaved caspase3 (Cell Signaling Technologies)) diluted in blocking solution overnight at 4° C. Blots were washed in TBS-0.5% Tween three times and probed with fluorescent or alkaline phosphatase conjugated secondary antibodies diluted 1:5000 in blocking solution for 1 hour at room temperature followed by three washes in TBS-0.5% Tween. […] All quantitation is based on standardization to loading controls.
Immunohistochemistry. Hearts were fixed and embedded and cardiomyocytes fixed and permeabilized as described previously^12. Staining of cultured neonatal rat cardiomyocytes was performed with antibodies described above diluted 1:25 in PBS containing 10% horse serum overnight at 4° C. Slides were washed in PBS and probed with fluorescent conjugated secondary antibodies (1:100) for one hour at room temperature, and Texas Red phalloidin (1:50 Molecular Probes) to identify actin filaments. Slides were washed three times in PBS, and stained for 30 minutes with TOPRO-3™ (1:5000 Molecular Probes) to identify nuclei, washed once and cover-slipped using […]™ (Vectra Labs). Paraffin embedded samples were cut at 4 μm and deparaffinized through a standard series of Xylene and graded Ethanol steps to water. Antigen retrieval was performed in 10 mM Citrate pH6.0. PIM-1 and phospho-AKT signals were amplified using the TYRAMIDE AMPLIFICATION KIT™ (Perkin Elmer) with primary concentrations of 1:500 for both antibodies, and secondaries 1:3000. Slides were washed following the amplification process, and stained with TOPRO-3 (Molecular Probes) to identify nuclei, washed and cover-slipped with […]™ (Vectra Labs). Confocal imaging of stained slides was performed on a Leica LCS confocal microscope. For comparison purposes, all slides were treated identically and scanned using the same settings in each experiment.

The subject of assay [1] is neonatal rat cardiomyocytes (NRCMs). Briefly: Endothelin-1 induced hypertrophy, cell surface area of neonatal rat cardiomyocytes. Format: cell-based. Particulars: 10 nM for 1 hour prior to 48 hour incubation with ET-1; compared to ET-1 stimulated cells without inhibitor.
Description: The impact of Pim-wt overexpression upon cardiomyocyte hypertrophy was initially examined using neonatal rat cardiomyocytes (NRCMs) infected with adenoviruses encoding EGFP-Pim-wt or EGFP protein followed by stimulation with endothelin-1 (ET-1) for 24 hours.
Neonatal rat cardiomyocyte cultures were prepared as described previously (10).

Entries after “also recorded” stand apart in the source; their conditions may differ.

These results are taken from patent US8617534B2, “Compositions and method for manipulating PIM-1 activity in circulatory system cells” (San Diego State University (SDSU) Foundation, priority 2007, dated 2013).

On to `C=C1[C@@H](O)[C@@H]2O[C@]3(CC[C@H](/C=C/[C@@H](C)[C@@H]4CC(C)=C[C@@]5(O[C@H](C[C@@](C)(O)C(=O)O)CC[C@H]5O)O4)O3)CC[C@H]2O[C@@H]1[C@@H](O)C[C@H](C)[C@H]1O[C@@]2(CCCCO2)CC[C@H]1C` [Okadaic acid], for which the “effect on negative regulation of PIM-1 by protein phosphatase 2A” value in the assay with protein phosphatase 2A is reported as “inhibit or block negative regulation of PIM-1 by protein phosphatase 2A”.

In the case of `CCCCCCCCCCCCCC(=O)O[C@@H]1[C@@H](C)[C@@]2(O)[C@@H](C=C(CO)C[C@]3(O)C(=O)C(C)=C[C@@H]23)[C@@H]2C(C)(C)[C@]12OC(C)=O` [PMA], in the assay with PIM-1, the “PIM-1 protein level (immunoblot)” value is on record as “significantly increased PIM-1 expression; also recorded: Induction is evident”, the “induction of PIM-1 expression” value was determined as 2.3 fold and the “PIM-1 immunoreactivity by confocal microscopy” value (“PIM-1 immunoreactivity” for short) is given as “induced PIM-1 immunoreactivity”.

For `C[C@@H]1C[C@H]2[C@@H]3CCC4=CC(=O)C=C[C@]4(C)[C@@]3(F)[C@@H](O)C[C@]2(C)[C@@]1(O)C(=O)CO` [dexamethasone], the “induction of PIM-1 expression” value in the assay with PIM-1 is on record as 2.0 fold.

In the case of `C=C[C@@]1(C)CC(=O)[C@]2(O)[C@@]3(C)[C@@H](O)CCC(C)(C)[C@@H]3[C@H](O)[C@H](OC(C)=O)[C@@]2(C)O1` [forskolin], the “reduction of PIM-1 expression” value with PIM-1 (versus control cultures) stood at 45%.

In the case of `CNC[C@H](O)c1cccc(O)c1` [phenylephrine], in the assay on PIM-1, the “PIM-1 protein level (immunoblot)” value is “did not markedly increase Pim-1 protein expression” and the “PIM-1 immunoreactivity” value was “not induced”. Further, in the assay with PIM-1 (listed as phenyl-ephedrine), the “PIM-1 protein level (immunoblot)” value was “little or no increase”.

`O=c1c(O)c(-c2ccc(O)c(O)c2)oc2cc(O)c(O)c(O)c12` [quercetagetin]: the “cell surface of Pim-1 expressing NRCM cultures” value in assay [1] is on record as “significantly larger surface”.

In the case of `COC[C@H]1OC(=O)c2coc3c2[C@@]1(C)C1=C(C3=O)[C@@H]2CCC(=O)[C@@]2(C)C[C@H]1OC(C)=O` [wortmannin], the “reduction of PIM-1 expression in response to IGF-1 treatment” value in the assay with PIM-1 (in the presence of the inhibitor or inactivated AKT) is on record as 4.0 fold.

Consider Insulin-like Growth Factor [IGF-1], for which, in the assay on PIM-1, the “PIM-1 protein level (immunoblot)” value is reported as “significantly increased PIM-1 expression; also recorded: Induction is evident”, the “induction of PIM-1 expression” value was 2.7 fold and the “PIM-1 immunoreactivity” value is listed as “induced PIM-1 immunoreactivity”.

Take Leukemia Inhibitory Factor [LIF]: in the assay on PIM-1, the “PIM-1 protein level (immunoblot)” value was “significantly increased PIM-1 expression”, the “induction of PIM-1 expression” value stood at 2.8 fold and the “PIM-1 immunoreactivity” value is given as “induced PIM-1 immunoreactivity”.

Consider endothelin-1, for which, in the assay with PIM-1, the “PIM-1 protein level (immunoblot)” value is reported as “little or no increase; also recorded: did not markedly increase Pim-1 protein expression” and the “PIM-1 immunoreactivity” value is “not induced”.

B1: SV40 small T antigen: viral protein said to block negative regulation of PIM-1 by protein phosphatase 2A (protein, UniProt P03081 1-174, looked up)
Small t antigen: MDKVLNREESLQLMDLLGLERSAWGNIPLMRKAYLKKCKEFHPDKGGDEEKMKKMNTLYKKMEDGVKYAHQPDFGGFWDATEVFASSLNPGVDAMYCKQWPECAKKMSANCICLLCLLRMKHENRKLYRKDPLVWVDCYCFDCFRMWFGLDLCEGTLLLWCDIIGQTTYRDLKL
On to B1, for which the “effect on negative regulation of PIM-1 by protein phosphatase 2A” value with protein phosphatase 2A was “inhibit or block negative regulation of PIM-1 by protein phosphatase 2A”.
